# US10815276B2, “Cell penetrating peptides and methods of making and using thereof” (Entrada Therapeutics, Inc., priority 2014, dated 2020)
# Starred links: 1 amine or outer side, 2 acyl side, 3 side chain; linkers in the order of their positions; H or OH if unused. Positions of bridges follow the written chain, without caps; N, C: chain ends. Non-standard residues stand in square brackets, D forms with d. Residues, ends and D or L forms follow the SMILES beside them. Trimesoyl = O=C(c1cc(C(=O)[*:2])cc(C(=O)[*:3])c1)[*:1]; Phe(4-F) = N[C@@H](Cc1ccc(F)cc1)C(=O)O; 2Nal = N[C@@H](Cc1ccc2ccccc2c1)C(=O)O; Pip = O=C(O)[C@@H]1CCCCN1; Dap = NC[C@H](N)C(=O)O; βAla = NCCC(=O)O; Sar = CNCC(=O)O
# Molecular target: T1, Pin1 (Homo sapiens, UniProt Q13526, S16A/Y23A)
# T1 construct: The full-length human S16A/Y23A mutant Pin1 was expressed and purified from E. coli; made in house
# Assay: Pin1 binding by FA (FITC-labeled peptides)
# Conditions: FITC-labeled peptide, FA; read-out: KD
# T1 sequence (Q13526 whole entry S16A/Y23A): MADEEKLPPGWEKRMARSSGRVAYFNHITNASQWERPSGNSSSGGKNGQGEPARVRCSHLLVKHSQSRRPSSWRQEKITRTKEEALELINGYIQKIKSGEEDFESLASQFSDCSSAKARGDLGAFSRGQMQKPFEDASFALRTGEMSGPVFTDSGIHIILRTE
row,Compound,Kd
1,"C[C@H](O)[C@H]1NC(=O)[C@H](Cc2ccc(F)cc2)NC(=O)[C@@H](Cc2ccccc2)NC(=O)c2cc3cc(c2)C(=O)NC[C@H](NC(=O)[C@H](CCCNC(=N)N)NC(=O)[C@H](Cc2ccc4ccccc4c2)NC(=O)[C@@H]2CCCCN2C1=O)C(=O)N[C@@H](Cc1ccccc1)C(=O)N[C@@H](Cc1ccc2ccccc2c1)C(=O)N[C@@H](CCCNC(=N)N)C(=O)N[C@@H](CCCNC(=N)N)C(=O)N[C@@H](CCCNC(=N)N)C(=O)N[C@@H](CCCNC(=N)N)C(=O)N[C@H](C(=O)N[C@@H](CCCCN)C(N)=O)CNC3=O [Peptide 12, bicyclo[Tm-(D-Phe-Fpa-D-Thr-Pip-Nal-Arg)-Dap-(Phe-Nal-Arg-Arg-Arg-Arg-Dap)]-Lys] ([dF][Phe(4-F)][dT][Pip][2Nal]R[Dap]F[2Nal]RRRR[Dap]K-NH2; linker N-7-14 via Trimesoyl; C-terminus assumed)",2360 ± 480 nM
2,"C[C@@H]1NC(=O)[C@H](CCCNC(=N)N)NC(=O)[C@H](Cc2ccc3ccccc3c2)NC(=O)[C@@H]2CCCCN2C(=O)[C@@H](CC(=O)O)NC(=O)CN(C)C(=O)[C@@H]2CCCN2C(=O)c2cc3cc(c2)C(=O)NC[C@H](NC(=O)[C@@H](C)NC(=O)[C@@H](C)NC1=O)C(=O)N[C@@H](Cc1ccccc1)C(=O)N[C@@H](Cc1ccc2ccccc2c1)C(=O)N[C@@H](CCCNC(=N)N)C(=O)N[C@@H](CCCNC(=N)N)C(=O)N[C@@H](CCCNC(=N)N)C(=O)N[C@@H](CCCNC(=N)N)C(=O)N[C@H](C(=O)N[C@@H](CCCCN)C(N)=O)CNC3=O [Peptide 16, bicyclo[Tm-(Pro-Sar-D-Asp-Pip-Nal-Arg-Ala-D-Ala-D-Ala)-Dap-(Phe-Nal-Arg-Arg-Arg-Arg-Dap)]-Lys] (P[Sar][dD][Pip][2Nal]RA[dA][dA][Dap]F[2Nal]RRRR[Dap]K-NH2; linker N-10-17 via Trimesoyl; C-terminus assumed)",2490 ± 570 nM
3,"C[C@H]1NC(=O)[C@H](Cc2ccc(O)cc2)NC(=O)[C@H](CCCNC(=N)N)NC(=O)[C@H](Cc2ccc3ccccc3c2)NC(=O)[C@@H]2CCCCN2C(=O)[C@@H](CC(=O)O)NC(=O)CN(C)C(=O)[C@@H]2CCCN2C(=O)c2cc3cc(c2)C(=O)NC[C@H](NC1=O)C(=O)N[C@@H](Cc1ccccc1)C(=O)N[C@@H](Cc1ccc2ccccc2c1)C(=O)N[C@@H](CCCNC(=N)N)C(=O)N[C@@H](CCCNC(=N)N)C(=O)N[C@@H](CCCNC(=N)N)C(=O)N[C@@H](CCCNC(=N)N)C(=O)N[C@H](C(=O)N[C@@H](CCCCN)C(N)=O)CNC3=O [Peptide 17, bicyclo[Tm-(Pro-Sar-D-Asp-Pip-Nal-Arg-Tyr-D-Ala)-Dap-(Phe-Nal-Arg-Arg-Arg-Arg-Dap)]-Lys] (P[Sar][dD][Pip][2Nal]RY[dA][Dap]F[2Nal]RRRR[Dap]K-NH2; linker N-9-16 via Trimesoyl; C-terminus assumed)",2170 ± 550 nM
4,"C[C@H]1NC(=O)[C@H](CC(=O)O)NC(=O)[C@H](CCCNC(=N)N)NC(=O)[C@H](Cc2ccc3ccccc3c2)NC(=O)[C@@H]2CCCCN2C(=O)[C@@H](CC(=O)O)NC(=O)CN(C)C(=O)[C@@H]2CCCN2C(=O)c2cc3cc(c2)C(=O)NC[C@H](NC1=O)C(=O)N[C@@H](Cc1ccccc1)C(=O)N[C@@H](Cc1ccc2ccccc2c1)C(=O)N[C@@H](CCCNC(=N)N)C(=O)N[C@@H](CCCNC(=N)N)C(=O)N[C@@H](CCCNC(=N)N)C(=O)N[C@@H](CCCNC(=N)N)C(=O)N[C@H](C(=O)N[C@@H](CCCCN)C(N)=O)CNC3=O [Peptide 20, bicyclo[Tm-(Pro-Sar-D-Asp-Pip-Nal-Arg-Asp-D-Ala)-Dap-(Phe-Nal-Arg-Arg-Arg-Arg-Dap)]-Lys] (P[Sar][dD][Pip][2Nal]RD[dA][Dap]F[2Nal]RRRR[Dap]K-NH2; linker N-9-16 via Trimesoyl; C-terminus assumed)",3190 ± 500 nM

# Compounds with a lower Kd, results first:
row,Kd,Compound
1,2080 ± 310 nM,"C[C@@H]1NC(=O)[C@H](CCCNC(=N)N)NC(=O)[C@H](Cc2ccc3ccccc3c2)NC(=O)[C@@H]2CCCCN2C(=O)[C@@H](CC(=O)O)NC(=O)CN(C)C(=O)[C@@H]2CCCN2C(=O)c2cc3cc(c2)C(=O)NC[C@@H](C(=O)N[C@@H](CCCCN)C(N)=O)NC(=O)[C@H](CCCNC(=N)N)NC(=O)[C@H](CCCNC(=N)N)NC(=O)[C@H](CCCNC(=N)N)NC(=O)[C@H](CCCNC(=N)N)NC(=O)[C@H](Cc2ccc4ccccc4c2)NC(=O)[C@H](Cc2ccccc2)NC(=O)[C@H](CNC3=O)NC(=O)CCNC1=O [Peptide 13, bicyclo[Tm-(Pro-Sar-D-Asp-Pip-Nal-Arg-Ala-β-Ala)-Dap-(Phe-Nal-Arg-Arg-Arg-Arg-Dap)]-Lys] (P[Sar][dD][Pip][2Nal]RA[βAla][Dap]F[2Nal]RRRR[Dap]K-NH2; linker N-9-16 via Trimesoyl; C-terminus assumed)"
2,1750 ± 180 nM,"C[C@H]1NC(=O)CCNC(=O)[C@H](CCCNC(=N)N)NC(=O)[C@H](Cc2ccc3ccccc3c2)NC(=O)[C@@H]2CCCCN2C(=O)[C@@H](CC(=O)O)NC(=O)CN(C)C(=O)[C@@H]2CCCN2C(=O)c2cc3cc(c2)C(=O)NC[C@H](NC1=O)C(=O)N[C@@H](Cc1ccccc1)C(=O)N[C@@H](Cc1ccc2ccccc2c1)C(=O)N[C@@H](CCCNC(=N)N)C(=O)N[C@@H](CCCNC(=N)N)C(=O)N[C@@H](CCCNC(=N)N)C(=O)N[C@@H](CCCNC(=N)N)C(=O)N[C@H](C(=O)N[C@@H](CCCCN)C(N)=O)CNC3=O [Peptide 14, bicyclo[Tm-(Pro-Sar-D-Asp-Pip-Nal-Arg-β-Ala-D-Ala)-Dap-(Phe-Nal-Arg-Arg-Arg-Arg-Dap)]-Lys] (P[Sar][dD][Pip][2Nal]R[βAla][dA][Dap]F[2Nal]RRRR[Dap]K-NH2; linker N-9-16 via Trimesoyl; C-terminus assumed)"
3,1750 ± 240 nM,"CC(C)[C@@H]1NC(=O)[C@H](CCCNC(=N)N)NC(=O)[C@H](Cc2ccc3ccccc3c2)NC(=O)[C@@H]2CCCCN2C(=O)[C@@H](CC(=O)O)NC(=O)CN(C)C(=O)[C@@H]2CCCN2C(=O)c2cc3cc(c2)C(=O)NC[C@H](NC(=O)[C@@H](C)NC1=O)C(=O)N[C@@H](Cc1ccccc1)C(=O)N[C@@H](Cc1ccc2ccccc2c1)C(=O)N[C@@H](CCCNC(=N)N)C(=O)N[C@@H](CCCNC(=N)N)C(=O)N[C@@H](CCCNC(=N)N)C(=O)N[C@@H](CCCNC(=N)N)C(=O)N[C@H](C(=O)N[C@@H](CCCCN)C(N)=O)CNC3=O [Peptide 18, bicyclo[Tm-(Pro-Sar-D-Asp-Pip-Nal-Arg-Val-D-Ala)-Dap-(Phe-Nal-Arg-Arg-Arg-Arg-Dap)]-Lys] (P[Sar][dD][Pip][2Nal]RV[dA][Dap]F[2Nal]RRRR[Dap]K-NH2; linker N-9-16 via Trimesoyl; C-terminus assumed)"
4,720 ± 90 nM,"C[C@H]1NC(=O)[C@H](CCCNC(=N)N)NC(=O)[C@H](CCCNC(=N)N)NC(=O)[C@H](Cc2ccc3ccccc3c2)NC(=O)[C@@H]2CCCCN2C(=O)[C@@H](CC(=O)O)NC(=O)CN(C)C(=O)[C@@H]2CCCN2C(=O)c2cc3cc(c2)C(=O)NC[C@H](NC1=O)C(=O)N[C@@H](Cc1ccccc1)C(=O)N[C@@H](Cc1ccc2ccccc2c1)C(=O)N[C@@H](CCCNC(=N)N)C(=O)N[C@@H](CCCNC(=N)N)C(=O)N[C@@H](CCCNC(=N)N)C(=O)N[C@@H](CCCNC(=N)N)C(=O)N[C@H](C(=O)N[C@@H](CCCCN)C(N)=O)CNC3=O [Peptide 19, bicyclo[Tm-(Pro-Sar-D-Asp-Pip-Nal-Arg-Arg-D-Ala)-Dap-(Phe-Nal-Arg-Arg-Arg-Arg-Dap)]-Lys] (P[Sar][dD][Pip][2Nal]RR[dA][Dap]F[2Nal]RRRR[Dap]K-NH2; linker N-9-16 via Trimesoyl; C-terminus assumed)"
